Data set [1] in a line: Solubility assessment in FaSSIF V2 media. The following applies: room temp, scale up samples of racemic 5-MAPB salts.
The target in data set [2] is T1, serotonin (5-HT) transporter (SERT) (Rattus norvegicus (Rat), UniProt P31652). The data set can be described thus: Rat synaptosome SERT [3H]5-HT uptake inhibition assay. The following applies: Inhibition of [3H]5-HT Uptake at SERT IC50 (nM), 5 nM [3H]5-HT.
Data set [3] addresses Nicotinic Acetylcholine Receptor α4β2 (nAchRa4/b2) (Homo sapiens (Human), UniProt P17787+P43681). Nature of the data set: Nicotinic acetylcholine receptor α4β2 ion channel blocking assay. In kind it is cell-based. Here is the method: Cell lines were expanded from freezer stocks according to standard procedures. Cells were seeded in a total volume of 20 μL into black-walled, clear-bottom, Poly-D-lysine coated 384-well microplates and incubated at 37° C. for the appropriate time prior to testing.
Assays were performed in 1×Dye Loading Buffer consisting of 1×Dye, and 2.5 mM freshly-prepared Probenecid when applicable.
Test compounds were assayed at 10 concentrations with the highest concentration either 30 or 10 μM and subsequent concentrations using a 0.33 dilution factor.
Prior to testing, cells were loaded with dye then incubated for 30-60 minutes at 37° C. For antagonist determination, cells were pre-incubated with sample. Dihydro-β-erythroidine was used as a positive control. Intermediate dilution of sample stocks was performed to generate 2-5×sample in assay buffer.
After dye loading, cells were moved from the incubator and 10-25 μL 2-5×sample was added to cells in the presence of EC80 agonist when appropriate. Cells were incubated for 30 minutes at room temperature in the dark to equilibrate plate temperature. Vehicle concentration was 1%.
Compound activity was measured on a FLIPRTetra(MDS) and analyzed using CBIS data analysis suite (ChemInnovation, CA). Percentage inhibition was calculated using the following formula: % Inhibition=100%×(1−(mean RLU of test sample−mean RLU of vehicle control)/(mean RLU of EC80 control−mean RLU of vehicle control)).

The target in data set [4] is T1, serotonin (5-HT) transporter (SERT). The data set can be described thus: Rat synaptosome SERT [3H]5-HT release assay. The following applies: [3H]5-HT release via SERT EC50 (nM), 5 nM [3H]5-HT.
Data set [5] concerns the target human 5-HT transporter (hSERT) (Homo sapiens (Human), UniProt P31645). The data set can be described thus: Human serotonin transporter  assay ([3H]imipramine radioligand, CHO cells). In kind it is binding. The protocol: Benzofuran derivatives were evaluated for inhibiting the human 5-HT transporter (hSERT) as expressed in CHO cells using an antagonist radioligand assay (Tatsumi, M. et al. (1999), Eur. J Pharmacol., 368: 277-283). […] Test compounds were assayed in three trials at […], and 0.94868 μM.

Another data set concerns the target 5-HT1BR (Homo sapiens (Human), UniProt P28222). Nature of the data set: 5-HT1BR cAMP secondary messenger agonist assay (HitHunter, CHO-K1). Format: cell-based. The text has this:
The 5-HT1BR cAMP secondary messenger agonist assay used a panel of CHO-K1 cell lines stably expressing non-tagged GPCRs that endogenously signal through cAMP. Hit Hunter® cAMP assays monitored the activation of a GPCR via Gi and Gs secondary messenger signaling in a homogenous, non-imaging assay format using DiscoverX Enzyme Fragment Complementation (EFC) with β-galactosidase as the functional endpoint.
The enzyme was split into two complementary portions: Enzyme Acceptor (EA) and Enzyme Donor (ED). Exogenously introduced ED fused to cAMP (ED-cAMP) competed with endogenously generated cAMP for binding to an anti-cAMP-specific antibody. Active β-galactosidase was formed by complementation of exogenous EA to any unbound ED-cAMP.
Cell lines were expanded from freezer stocks according to standard procedures. Cells were seeded in a total volume of 20 μL into white walled, 384-well microplates and incubated at 37° C. for the appropriate time prior to testing. cAMP modulation was determined using the DiscoverX HitHunter cAMP XS+ assay.
For agonist determination, cells were incubated with sample (in the presence of EC80 forskolin to induce response if measuring Gi secondary messenger signaling). Media was aspirated from cells and replaced with 15 μL 2:1 HBSS/10 mM Hepes:cAMP XS+ Ab reagent. Intermediate dilution of sample stocks was performed to generate 4×sample in assay buffer (optionally containing 4×EC80 forskolin). 5 μL of 4×sample was added to cells and incubated at 37° C. or room temperature for 30 or 60 minutes, as appropriate. Final assay vehicle concentration was 1%.

For the next data set, the target named is MAO-A (Homo sapiens (Human), UniProt P21397). Nature of the data set: MAO-A inhibition assay (kynuramine). Format: biochemical.
Sequence of MAO-A (P21397 whole entry, looked up, species assumed): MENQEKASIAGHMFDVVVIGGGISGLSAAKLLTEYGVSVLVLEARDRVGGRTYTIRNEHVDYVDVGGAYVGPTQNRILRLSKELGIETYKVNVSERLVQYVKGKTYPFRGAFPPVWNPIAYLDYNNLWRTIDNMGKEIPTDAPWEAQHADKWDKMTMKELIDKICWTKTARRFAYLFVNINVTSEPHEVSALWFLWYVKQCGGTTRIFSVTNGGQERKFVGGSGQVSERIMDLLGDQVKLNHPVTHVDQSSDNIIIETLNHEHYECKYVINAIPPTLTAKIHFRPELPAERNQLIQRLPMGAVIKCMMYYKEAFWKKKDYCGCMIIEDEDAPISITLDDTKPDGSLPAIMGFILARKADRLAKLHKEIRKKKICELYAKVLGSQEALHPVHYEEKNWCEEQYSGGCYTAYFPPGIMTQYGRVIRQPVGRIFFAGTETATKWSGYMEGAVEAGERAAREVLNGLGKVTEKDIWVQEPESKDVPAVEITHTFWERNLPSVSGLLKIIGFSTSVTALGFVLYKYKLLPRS
The next data set has as its target SERT (Homo sapiens (Human), UniProt P31645). The data set can be described thus: hSERT release assay in CHO cells ([3H]serotonin). The following applies: EC50 SERT (Mean ± SEM, nM), CHO cells expressing hSERT.
A further data set has as its target 5-HT2A receptors (Homo sapiens (Human), UniProt P28223). Nature of the data set: 5-HT2A agonist and antagonist calcium assay (Calcium NWPLUS, FLIPR). Format: cell-based. The protocol:
The DiscoveRx Calcium NWPLUS Assay was used for detection of changes in intracellular calcium as signalled by an increase of dye fluorescence in cells expressing 5-HT2A receptors. Signal was measured on a fluorescent plate reader equipped with fluidic handling capable of detecting rapid changes in fluorescence upon compound stimulation.
To conduct the assay, cell lines were expanded from freezer stocks according to standard procedures. Cells (10,000 cells/well) were seeded in a total volume of 50 μL (200 cells/μL) into black-walled, clear-bottom, Poly-D-lysine coated 384-well microplates and incubated at 37-C for the appropriate time prior to testing. DMSO concentration for all readouts was ≤0.2%.
Assays were performed in 1×DyeLoading Buffer consisting of 1×Dye (DiscoverX, Calcium No WashPLUS kit, Catalog No. 90-0091), 1×Additive A and 2.5 mM Probenecid in HBSS/20 mM Hepes. Probenecid was prepared fresh. Cells were loaded with dye prior to testing. Media was aspirated from cells and replaced with 25 μL Dye Loading Buffer. Test compounds were assayed at 10 concentrations with the highest concentration either 30 or 10 μM and subsequent concentrations using a 0.33 dilution factor. Cells with testing sample were incubated for 45 minutes at 37° C. and then 20 minutes at room temperature. After dye loading, cells were removed from the incubator and 25 μL of 2×compound in HBSS/20 mM Hepes was added using a FLIPR Tetra (MDS). […]
Compound agonist activity was measured on a FLIPR Tetra. Calcium mobilization was monitored for 2 minutes with a 5 second baseline read. FLIPR read-Area under the curve was calculated for the two minute read. Compound activity was analyzed using CBIS data analysis suite (ChemInnovation, CA). Percentage activity was calculated as 100%×(mean RFU of test sample−mean RFU of vehicle control)/(mean MAX RFU control ligand −mean RFU of vehicle control). For antagonist mode assays, percentage inhibition was calculated as 100%×(1−(mean RFU of test sample−mean RFU of vehicle control)/(mean RFU of EC80 control−mean RFU of vehicle control)).

Another data set concerns the target DAT (Homo sapiens (Human), UniProt Q01959). Nature of the data set: hDAT release assay in CHO cells ([3H]dopamine). The following applies: EC50 DAT (Mean ± SEM, nM), CHO cells expressing hDAT.
The next data set addresses 5-HT2B (Homo sapiens (Human), UniProt P41595). The data set can be described thus: 5-HT2B agonist and antagonist calcium assay (Calcium NWPLUS, FLIPR). In kind it is cell-based.
For a further data set, the system named is healthy human individual. Nature of the data set: Human effects of non-racemic 5-MAPB, self-reported ratings (Good, Bad, Open). Format: in vivo. The following applies: averaged from all sessions, 54 mg 5-MAPB HCl oral in two halves. The protocol: The effects of non-racemic 5-MAPB HCl were tested by a healthy human individual at four different ratios of enantiomers plus the racemate as a control: • 54 mg S and 0 mg R (100% S) • 47 mg Sand 7 mg R (87% S) • 36 mg S and 18 mg R (67% S) • 27 mg S and 27 mg R (50% S) • 7 mg S and 47 mg R (13% S)
Two trials were carried out at each ratio, except for 13% S where only one was conducted. Trials were at least 72 h apart.
5-MAPB HCl was dissolved in 1.5 ml distilled water and consumed in two halves, separated by 1 hour. Starting at 3 hours after administration, tablets of 250 mg ascorbic acid and capsules of 300 mg alpha lipoic acid were taken ad libitum (approximately every hour for a total of 4 administrations).
Measurements were made approximately every 2 hours until post 6 hours and the maximum ratings per session were analyzed. Additionally, an index of good drug effects versus emotional openness, calculated as (Open−Good)/(200, the theoretical maximum of Open+Good), was constructed at each time point and the maximum analyzed. In healthy volunteers, Good Ratings can be considered a predictor of abuse liability. Accordingly, this index can be used as an indicator of the balance of a therapeutic effect (emotional openness) vs abuse liability.
Historic data of two trials 50 mg RS-5-MAPB Cl from the same individual were also included in the analysis for comparison.

The mark [6] stands for this setting: IC50 (appeared close to), lowest concentration too high for accurate estimate.
The mark [7] stands for this setting: SERT IC50 (μM), 2 nM [3H]imipramine.

Where only a bound is given, the exact number is not on record here.

Sequence of Nicotinic Acetylcholine Receptor α4β2 (nAchRa4/b2) (P43681 29-627 limits assumed): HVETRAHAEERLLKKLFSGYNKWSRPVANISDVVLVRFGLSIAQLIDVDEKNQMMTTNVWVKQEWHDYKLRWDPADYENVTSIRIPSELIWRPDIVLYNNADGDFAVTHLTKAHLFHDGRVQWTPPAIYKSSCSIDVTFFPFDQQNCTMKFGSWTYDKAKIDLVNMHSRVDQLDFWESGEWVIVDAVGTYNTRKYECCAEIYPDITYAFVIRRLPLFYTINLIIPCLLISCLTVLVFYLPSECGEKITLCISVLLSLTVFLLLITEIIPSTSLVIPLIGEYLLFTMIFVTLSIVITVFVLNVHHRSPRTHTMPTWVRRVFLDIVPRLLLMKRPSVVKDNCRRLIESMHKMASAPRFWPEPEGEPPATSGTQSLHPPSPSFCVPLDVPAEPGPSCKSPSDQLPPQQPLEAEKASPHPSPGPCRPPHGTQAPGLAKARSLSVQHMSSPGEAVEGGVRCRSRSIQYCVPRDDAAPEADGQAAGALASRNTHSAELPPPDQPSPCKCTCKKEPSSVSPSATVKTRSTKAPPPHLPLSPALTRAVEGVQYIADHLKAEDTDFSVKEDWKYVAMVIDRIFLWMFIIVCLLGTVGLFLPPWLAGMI
Sequence of Nicotinic Acetylcholine Receptor α4β2 (nAchRa4/b2) (P17787 26-502 limits assumed): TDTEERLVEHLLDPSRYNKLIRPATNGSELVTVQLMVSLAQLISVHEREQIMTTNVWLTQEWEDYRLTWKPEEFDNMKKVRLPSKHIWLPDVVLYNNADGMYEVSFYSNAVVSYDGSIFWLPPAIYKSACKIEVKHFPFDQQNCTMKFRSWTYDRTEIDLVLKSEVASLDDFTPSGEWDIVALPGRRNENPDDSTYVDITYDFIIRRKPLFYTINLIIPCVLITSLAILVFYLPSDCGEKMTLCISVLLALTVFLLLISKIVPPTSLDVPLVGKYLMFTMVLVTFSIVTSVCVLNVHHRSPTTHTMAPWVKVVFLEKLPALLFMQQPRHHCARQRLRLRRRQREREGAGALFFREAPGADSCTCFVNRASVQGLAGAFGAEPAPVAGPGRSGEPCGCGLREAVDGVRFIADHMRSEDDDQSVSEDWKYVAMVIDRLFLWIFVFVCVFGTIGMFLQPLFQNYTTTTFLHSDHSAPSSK
Sequence of 5-HT2B (P41595 whole entry, looked up, species assumed): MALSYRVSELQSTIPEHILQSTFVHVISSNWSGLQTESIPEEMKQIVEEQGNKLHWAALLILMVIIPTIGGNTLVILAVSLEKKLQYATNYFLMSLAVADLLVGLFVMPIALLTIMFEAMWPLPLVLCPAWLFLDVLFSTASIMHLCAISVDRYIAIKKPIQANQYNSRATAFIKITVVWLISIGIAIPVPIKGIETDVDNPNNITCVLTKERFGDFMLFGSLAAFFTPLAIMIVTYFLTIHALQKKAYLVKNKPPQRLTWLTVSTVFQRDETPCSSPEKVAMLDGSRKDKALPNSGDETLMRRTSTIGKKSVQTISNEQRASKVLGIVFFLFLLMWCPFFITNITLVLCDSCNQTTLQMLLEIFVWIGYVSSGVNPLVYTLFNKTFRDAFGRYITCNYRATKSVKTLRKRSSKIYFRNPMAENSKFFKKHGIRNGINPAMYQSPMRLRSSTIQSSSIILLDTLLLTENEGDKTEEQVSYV
Experimental for MAO-A: MAO-A and test compounds were preincubated at 37° C. for 15 minutes before substrate addition. Test compounds were assayed at 10 concentrations with the highest concentration either 30 or 10 μM and subsequent concentrations using a 0.33 dilution factor. The reaction was initiated by addition of kynuramine and incubated at 37° C. for 30 minutes. The reaction was terminated by addition of NaOH. The amount of 4-hydroquioline formed was determined through spectrofluorimetric readout with the emission detection at 380 nm and excitation wavelength 310 nm.

Turning to `CNC(C)Cc1ccc2occc2c1.Cl` (stereo not drawn) [Pattern 1A, 5-MAPB hydrochloride], the Solubility in data set [1] is more than 10000 µg/mL.

On to `CC[C@H](Cc1ccc2occc2c1)NC` (stereo in doubt) [Compound R-5-MBPB, 1-(benzofuran-5-yl)-N-methylbutan-2-amine], for which the half-maximal inhibitory concentration (IC50) in data set [2] is 212 ± 36.2 nM; in data set [3] it was 6330 nM; in [5] (setting [6]), approximately 0.949 µM. In [4], a half-maximal effect (EC50) was put at 49.5 ± 27.1 nM.

`CN[C@@H](C)Cc1ccc2ccoc2c1` [Compound S-6-MAPB, (S)-1-(benzofuran-6-yl)-N-methylpropan-2-amine]: the “Hill Coef.” value at 5-HT1BR is 1.21. Also, the figures for the EC50 (at 5-HT1BR (5-HT1BR EC50 (μM)); at 5-HT1BR (5HT1B Agonist (μM)); in data set [4]) were 0.102 µM, 0.1 µM and 20.6 ± 2.7 nM, respectively. Besides, the IC50 turned out to be 5390 nM on MAO-A, 90.9 ± 5.9 nM in [2] and 6.7 µM in [5] (setting [7]).

With `CC[C@@H](Cc1ccc2occc2c1)NC` (stereo in doubt) [Compound S-5-MBPB, 1-(benzofuran-5-yl)-N-methylbutan-2-amine], the IC50 at MAO-A is 2660 nM; in data set [2], 124 ± 35.8 nM; in data set [3], 9980 nM; in data set [5] (setting [6]), approximately 0.0949 µM. The compound also showed an EC50 in data set [4] of 31.2 ± 14.3 nM.

In the case of `CN[C@H](C)Cc1ccc2occc2c1` [Compound R-5-MAPB, (R)-1-(benzofuran-5-yl)-N-methylpropan-2-amine], the EC50 at SERT is 184 ± 3 nM; on 5-HT1BR (5-HT1BR EC50 (μM)) it was 0.981 µM; on 5-HT1BR (5HT1B Agonist (μM)), 0.98 µM; on 5-HT2A receptors it was 2400 nM; at DAT, 1950 ± 401 nM; in [4], 29.3 ± 3.7 nM. At 5-HT1BR, the “Hill Coef.” value was 1.13. In addition, the concentration for half-maximal inhibition (IC50) came to 5340 nM at 5-HT2A receptors; 360 nM at 5-HT2B; 3940 nM against MAO-A; 150 ± 8.6 nM in data set [2]; 4240 nM in [3]; 2.7 µM in data set [5] (setting [7]).

With `CN[C@@H](C)Cc1ccc2occc2c1` [Compound S-5-MAPB, (S)-1-(benzofuran-5-yl)-N-methylpropan-2-amine], the EC50 at SERT was determined as 67 ± 15 nM; on 5-HT1BR (5-HT1BR EC50 (μM)), 0.161 µM; on 5-HT1BR (5HT1B Agonist (μM)), 0.16 µM; on DAT, 258 ± 99 nM; in [4] it was 13 ± 1.2 nM. The “Hill Coef.” value at 5-HT1BR came to 1.08. Further, the IC50 against MAO-A stood at 1290 nM; in [2] it was 60.4 ± 2.8 nM; in data set [5] (setting [7]) it was 3.4 µM.

For the compound `CN[C@@H](C)Cc1ccc2occc2c1` [75% S-5-MAPB], the EC50 on SERT is 80 ± 7 nM; on DAT, 632 ± 113 nM.

With `CNC(C)Cc1ccc2occc2c1.O=C(O)/C=C\C(=O)O` (stereo not drawn) [Pattern 10A], in data set [1], the Solubility is more than 10000 µg/mL.

On to `CN[C@H](C)Cc1ccc2occc2c1` [75% R-5-MAPB], for which the concentration giving a half-maximal response (EC50) is 122 ± 13 nM at SERT and 794 ± 182 nM on DAT.

As for `Br.CNC(C)Cc1ccc2occc2c1` (stereo not drawn) [Pattern 2B], the Solubility in data set [1] is more than 10000 µg/mL.

In the data set with healthy human individual (maximum 0-100 rating of bad drug effects), `CN[C@@H](C)Cc1ccc2occc2c1` [100% S-5-MAPB] showed a Bad of 1%. Besides, in the data set with healthy human individual (maximum 0-100 rating of emotional openness), the Open was 65%. Also, in the data set with healthy human individual (maximum 0-100 rating of good drug effects), the Good is reported as 55%.

One may read the Solubility as the dissolved amount per volume that the medium holds. One may read the IC50 as the concentration needed to halve the response being measured. By EC50 is commonly meant the concentration that produces a half-maximal response.

Values taken from patent publication US11767305B2, “Advantageous benzofuran compositions for mental disorders or enhancement” (Tactogen Inc, priority 2020, dated 2023).
